Measured values taken from article PMC9144902, “Metal(II) Complexes of the Fluoroquinolone Fleroxacin: Synthesis, Characterization and Biological Profile” (Pharmaceutics, 2022).

Assays:
CT DNA = assay: Study of the DNA-interaction by cyclic voltammetry; format: binding, calf; conditions: for Epa(f), anodic potential / Epc(f), cathodic potential / Epa(b), anodic potential / Epc(b), cathodic potential: M(II)/M(I), 1:2 DMSO/buffer; for Epa(f), anodic potential / Epc(f), cathodic potential: absence of CT DNA; for Epa(b), anodic potential / Epc(b), cathodic potential: presence of CT DNA; for Kr/Kox, ratio of equilibrium DNA-binding constants (reduced/oxidized form): eq. S6
Procedure: Cyclic voltammetry was used to study the interaction of the complexes with CT DNA. An intercalative interaction will induce a positive shift for the electrochemical potential(s) of metal oxidation/reduction, whereas, in the case of electrostatic interaction, a negative shift in the potential(s) may occur. The cyclic voltammograms of the complexes in a 1:2 DMSO:buffer solution (0.33 mM) were recorded in the absence and presence of the CT DNA solution (Figure S13). The predominant electrochemical feature for all complexes is a positive shift in the potential in the presence of CT DNA (ΔEpc/a = (–30)–(+127) mV). Consequently, the intercalative nature of the interaction of the complexes with DNA can be inferred from the presented data.
In order to evaluate further the redox behavior of the complexes, the corresponding equilibrium constants were calculated by determining the ratio Kr/Kox in accordance to Equation (S6), where Kox and Kr are the DNA-binding constants for the oxidized and reduced form, respectively, of the metal ions. For all complexes, the Kr/Kox ratio is close to or above 1 (Table 7), showing the selective binding of DNA to the […] form of the complexes. […]
S3.3 Study of the DNA –interaction by cyclic vol ta mmetry
Cyclic voltammetr y can be also used in order to calculate the corresponding equilibrium constant for the redox process. The ratio of the DNA–binding constants for the reduced (K r) and oxidized forms (Kox) of t he complex es (Kr/Kox) w as calculat ed according t o eq. S6:
Δ = = 0.059 × lo gEE E K oxoo o (eq. S6) […]
where Eo and Eo are the formal potentials of M(II)/M(I) redox couple in the fully bound and […]
free complexes, respectivel y. Kox and Kr are the binding constants for the binding of the oxidized and reduced species to DNA, respectivel y [S8] . […]

EB–DNA adduct (CT DNA) = assay: Competitive study with EB (EB–DNA fluorescence quenching); format: binding, calf; conditions: for Ksv, Stern–Volmer constant: EB–DNA adduct; for ΔI/Io, percentage of EB–DNA fluorescence quenching: [EB] = 20 μM, [DNA] = 26 μM, λexc 540 nm, λem 592 nm; for EB–DNA relative fluorescence emission intensity, % of the initial (I/Io): λemission = 592 nm, final value (up to), Figure S14; for kq, EB–DNA quenching constant: τo = 23 ns
Procedure: Ethidium bromide is a typical marker of intercalation because it can intercalate between adjacent DNA bases with its planar phenanthridine ring.
The fluorescence emission spectra of the EB–DNA adduct ([EB] = 20 μM, [DNA] = 26 μM) in the absence and presence of the compounds were recorded at increasing amounts of the respective compounds. […] As a conclusion, an intercalative interaction of the complexes with CT DNA can be proposed.
The values of the Stern–Volmer constants (Ksv) for the compounds were calculated using the linear Stern–Volmer equation (Equation (S2)) and were of the order of 10^5 M^−1 (Table 8), indicating tight binding of the complexes with DNA [61]. The Ksv values for the complexes are in the range found for a number of metal(II)–quinolone complexes, and complex 12 presents the highest Ksv value (Ksv = 7.25(±0.30) × 10^5 M^−1) among the compounds studied. In addition, the EB–DNA quenching constants (kq) for the compounds were calculated with Equation (S3), assuming τo = 23 ns as the fluorescence lifetime. The values of kq (Table 8) are much higher than the value of 10^10 M^−1s^−1, indicating a static mechanism of EB–DNA fluorescence quenching induced by the compounds, which can result from the formation of a new adduct apparently consisting of each complex and DNA [61].
In order to determine and confirm the DNA–binding mode of the compounds, a competitive study with EB as an intercalating marker is performed b y fluorescence emission spectroscopy.
Therefo re, the E B–displacing abilit y of the compounds from its EB –DN A conjugate was ex amined.
The DNA–EB adduct was prepared b y addition of 20 μM EB and 26 μM CT DNA in buffer solution (150 mM NaCl and 15 mM trisodium citrate at pH 7.0). The potential intercalation of the compounds between the DNA–bases was studied by the addition of a certain amount of the compound solution into the EB–DNA adduct solution. The influence of the compounds on the EB – DNA solution was monitored through the changes of the fluorescence emission spectra at excitation […]
wavelen gth (λex ) at 540 nm [S3]. […]
room temperature in solution or in the presence of DNA, under the same experimental conditions (λex = 540 nm). Bearing t hat in mind, the observed quenching of the EB–DNA solution is evidentl y associated to the displacement of EB from its EB–DNA adduct.
The quenching effici ency (KSV) for each compound was assessed according to the Stern – Volmer equation: Io =1+ k τ [Q] = 1+ K [Q], (eq. S2) [S3] where I0 and I = the fluorescence […]
emission intensities of EB–DNA in the absence and presence of the quencher, respectivel y, [Q] = the concentration of the quencher (i.e. compounds). KSV is obtained from t he Stern–Volmer plots b y the slope of the diagram I0/ I versus [Q]. Taking τ0 = 23 ns as the fluorescence lifetime of the EB– DNA s ystem [S5], the EB –DNA quenching constants (k q) of the compounds can be determined accordin g to eq.S3: K SV = kqτo . […]
[S2] Irgi, E.P.; Geromichalos, G.D.; Balala, S.; Kljun, J.; Kalogiannis, S.; Papadopoulos, A.; Turel, I.; Psomas, G. Cobalt(II) complexes with quinolone antimicrobial drug oxolinic acid: […]
[ S 5] Heller, D.P.; Greenstock, C.L. Fluorescence lifetime analysis of DNA intercalated ethidium bromide and quenching by free d ye. Biophys. Chem . 1994, 50, 305–312.

SMILES	Epa(f), anodic potential (CT DNA) [mV]	Epc(f), cathodic potential (CT DNA) [mV]	Epa(b), anodic potential (CT DNA) [mV]	Epc(b), cathodic potential (CT DNA) [mV]	Kr/Kox, ratio of equilibrium DNA-binding constants (reduced/oxidized form) (CT DNA)	Ksv, Stern–Volmer constant (EB–DNA adduct (CT DNA))	ΔI/Io, percentage of EB–DNA fluorescence quenching (EB–DNA adduct (CT DNA)) [%]	EB–DNA relative fluorescence emission intensity, % of the initial (I/Io) (EB–DNA adduct (CT DNA)) [%]	kq, EB–DNA quenching constant (EB–DNA adduct (CT DNA))
CN1CCN(c2c(F)cc3c(=O)c(C(=O)[O-])cn(CCF)c3c2F)CC1.CN1CCN(c2c(F)cc3c(=O)c(C(=O)[O-])cn(CCF)c3c2F)CC1.[Ni+2].c1cnc2c(c1)ccc1cccnc12 [complex 19, [Ni(flrx)2(phen)]]	−489	−706	−460	−718	1.15	3.18(±0.14) × 10^5 M^–1	68.1	31.9	1.38(±0.05) × 10^13 M^−1s^−1
CN1CCN(c2c(F)cc3c(=O)c(C(=O)[O-])cn(CCF)c3c2F)CC1.CN1CCN(c2c(F)cc3c(=O)c(C(=O)[O-])cn(CCF)c3c2F)CC1.CO.CO.[Ni+2] [complex 5, [Ni(flrx)2(MeOH)2]]	−495	−706	−501	−701	0.99	2.33(±0.08) × 10^5 M^–1	56.9	43.1	1.01(±0.03) × 10^13 M^−1s^−1
CN1CCN(c2c(F)cc3c(=O)c(C(=O)[O-])cn(CCF)c3c2F)CC1.CN1CCN(c2c(F)cc3c(=O)c(C(=O)[O-])cn(CCF)c3c2F)CC1.[Co+2].c1cnc2c(c1)ccc1cccnc12 [complex 17, [Co(flrx)2(phen)]]	−523	−695	−518	−689	1.10	3.56(±0.10) × 10^5 M^–1	69.8	30.2	1.55(±0.05) × 10^13 M^−1s^−1
CN1CCN(c2c(F)cc3c(=O)c(C(=O)[O-])cn(CCF)c3c2F)CC1.[Cl-].[Cu+2].c1cnc2c(c1)ccc1cccnc12 [complex 8, [Cu(flrx)(phen)Cl]]	−483	−725	−406	−720	2.00	3.25(±0.08) × 10^5 M^–1	66.4	33.6	1.41(±0.03) × 10^13 M^−1s^−1
CN1CCN(c2c(F)cc3c(=O)c(C(=O)[O-])cn(CCF)c3c2F)CC1.[Cl-].[Cu+2].c1ccc(-c2ccccn2)nc1 [complex 6, [Cu(flrx)(bipy)Cl]]	−450	−710	−323	−740	2.28	2.03(±0.05) × 10^5 M^–1	61.9	38.1	8.84(±0.21) × 10^12 M^−1s^−1
